Molecules are shown by their SMILES.

The source of these data is ChEMBL document CHEMBL1135326, “Structure-activity relationship studies of ethyl 2-[(3-methyl-2,5-dioxo(3-pyrrolinyl))amino]-4-(trifluoromethyl)pyrimidine-5-carboxylate: an inhibitor of AP-1 and NF-kappaB mediated gene expression” (Bioorg Med Chem Lett, 2002).

For one assay, the system named is Jurkat. The assay is described as follows: Inhibition of AP-1 and NF-kB-mediated transcriptional activation in Jurkat cells. To be noted: Homo sapiens, Jurkat. The format is functional, cell-based, Homo sapiens.
As for `CCOC(=O)c1cnc(NN2C(=O)C=C(C)C2=O)nc1-c1cccs1`, the IC50 was 140 nM.

In the case of `CCOC(=O)c1cnc(N(C)N2C(=O)C=C(C)C2=O)nc1-c1nccs1`, the IC50 amounted to 1700 nM. `CCCC(=O)c1cnc(NN2C(=O)C=C(C)C2=O)nc1CC`: inhibition was half-maximal at 450 nM (IC50). For the compound `CCc1nc(NN2C(=O)C=C(C)C2=O)ncc1-c1nc(C)co1`, the 50% inhibitory concentration (IC50) worked out at 830 nM. This IC50 is about 1.8-fold higher than that of the compound before.

`CCc1nc(NN2C(=O)C=C(C)C2=O)ncc1-c1nnc(C)o1` showed an IC50 of 10000 nM. Same read-out and setting: for `CCOC(=O)c1cnc(NN2C(=O)C=C(C)C2=O)nc1-c1ccsc1` the value was 200 nM; for `CC1=CC(=O)N(Nc2ncc(C(=O)N(C)C)c(C(F)(F)F)n2)C1=O`, 30000 nM; for `CCOC(=O)c1cnc(N(C(=O)NC)N2C(=O)C=C(C)C2=O)nc1C(F)(F)F`, 590 nM. In turn, `CCc1nc(NN2C(=O)C=C(C)C2=O)ncc1-c1nnn(C)n1` yielded an IC50 of 10000 nM. Still for that read-out and setting: for `CCOC(=O)c1cnc(N(C)N2C(=O)C=C(C)C2=O)nc1-c1ccc(C)s1` the value was 350 nM. On to `CCOC(=O)c1cnc(N)nc1C(F)(F)F`, for which the IC50 is 30000 nM. Against the preceding compound, the IC50 is about 86-fold higher. In turn, `CC1=CC(=O)N(Nc2ncc(C(=O)c3ccccc3)c(C(F)(F)F)n2)C1=O` gave an IC50 of 98 nM. Still for that read-out and setting: for `CC(=O)c1cnc(NN2C(=O)C=C(C)C2=O)nc1C` the value was 7700 nM; for `CCOC(=O)c1cnc(NN2C(=O)C=C(C)C2=O)nc1C`, 1900 nM; for `CCOC(=O)c1cnc(NN2C(=O)C=C(C)C2=O)nc1-c1ccc(Cl)s1`, 520 nM. The same measure, in the same setting: for `CCOC(=O)c1cnc(NN2C(=O)C=C(c3ccccc3)C2=O)nc1C(F)(F)F` the value was 3700 nM; for `CC1=CC(=O)N(Nc2ncc(C(=O)O)c(C(F)(F)F)n2)C1=O`, 30000 nM.

`CCOC(=O)c1cnc(NN2C(=O)C=C(C)C2=O)nc1-c1cc2ccccc2s1` showed a half-inhibitory concentration (IC50) of 800 nM.

In the case of `CC1=CC(=O)N(Nc2ncc(-c3nc(C)co3)c(-c3cccs3)n2)C1=O`, it took 760 nM to reach half-maximal inhibition (IC50). `CCOC(=O)c1cnc(N(Cc2ccccc2)N2C(=O)C=C(C)C2=O)nc1C(F)(F)F` gave a half-inhibitory concentration (IC50) of 450 nM. Regarding `CCc1nc(N(C)N2C(=O)C=C(C)C2=O)ncc1C(=O)c1ccccc1`, the IC50 worked out at 410 nM. The IC50 values of the last two compounds are within 1.5-fold of each other.

As to `CCOC(=O)c1cnc(N(C)N2C(=O)C=C(C)C2=O)nc1C(F)(F)C(F)(F)F`, the 50% inhibitory concentration (IC50) was found to be 350 nM. Compound `CCOC(=O)c1cnc(N(C(=O)c2ccccc2)N2C(=O)C=C(C)C2=O)nc1C(F)(F)F` came in with a 50% inhibitory concentration (IC50) of 830 nM. `CCOC(=O)c1cnc(NN2C(=O)C=C(C)C2=O)nc1`: the midpoint of inhibition, the IC50, lay at 13000 nM. For `CCOC(=O)c1cnc(NN2C(=O)C=C(C)C2=O)nc1C(F)(F)C(F)(F)F`, half-maximal inhibition (IC50) required 200 nM. This IC50 lies about 65-fold lower than the previous one.

`CCc1nc(NN2C(=O)C=C(C)C2=O)ncc1C(=O)c1ccccc1` gave an IC50 of 650 nM. The same measure, in the same setting: with `CCOC(=O)c1cnc(NN2C(=O)C=C(C)C2=O)nc1CC` the figure was 400 nM. On the same count and under the same terms, with `CC1=CC(=O)N(Nc2ncc(C(=O)OC(C)(C)C)c(-c3cccs3)n2)C1=O` the figure was 50 nM. For `CCc1nc(NN2C(=O)C=C(C)C2=O)ncc1-c1ncc(-c2ccccc2)o1`, the concentration for half-maximal inhibition (IC50) was determined as 2800 nM. The same measure, in the same setting: with `CCOC(=O)c1cnc(NN2C(=O)C=C(C)C2=O)nc1-c1ccccc1` the figure was 1200 nM; with `CCOC(=O)c1cnc(N(C(=O)OCC)N2C(=O)C=C(C)C2=O)nc1C(F)(F)F`, 380 nM; with `CCc1nc(NN2C(=O)C=C(C)C2=O)ncc1C(=O)OC1CC1`, 120 nM. With `CCc1nc(NN2C(=O)C=C(C)C2=O)ncc1-c1cc(C)no1`, the half-maximal inhibitory concentration (IC50) amounted to 10000 nM. This IC50 is about 83-fold higher than that of the compound before. `CCOC(=O)c1cnc(N(C)N2C(=O)C=C(C)C2=O)nc1CC` displayed an IC50 of 35 nM.

The compound `CCOC(=O)c1cnc(N(C)N2C(=O)C=C(C)C2=O)nc1-c1ccsc1` yielded a half-inhibitory concentration (IC50) of 120 nM. Still for that read-out and setting: with `CCc1nc(NN2C(=O)C=C(C)C2=O)ncc1CO` the figure was 4900 nM. `CCc1nc(N(C)N2C(=O)C=C(C)C2=O)ncc1COC` yielded an IC50 of 630 nM. This IC50 lies about 7.8-fold lower than the previous one. In turn, `CCOC(=O)c1cnc(NN2C(=O)C=C(C)C2=O)nc1-c1ccc(C)s1` came in with an IC50 of 45 nM. This IC50 lies about 14-fold lower than the previous one. `CC1=CC(=O)N(Nc2ncc(C(N)=O)c(C(F)(F)F)n2)C1=O` showed an IC50 of 30000 nM. Regarding `CCOC(=O)c1cnc(NN2C(=O)C=C(C)C2=O)nc1COC`, the concentration for half-maximal inhibition (IC50) was found to be 6000 nM.

As to `CCOC(=O)c1cnc(NN2C(=O)C=C(C)C2=O)nc1C1CC1`, the IC50 came out at 1500 nM. Same read-out and setting: for `CC1=CC(=O)N(Nc2ncc(C(=O)OC(C)(C)C)c(C(F)(F)F)n2)C1=O` the value was 210 nM. The compound `CCOC(=O)c1cnc(N(C)N2C(=O)C=C(C)C2=O)nc1-c1cc2ccccc2s1` had an IC50 of 130 nM. Take `CCOC(=O)c1cnc(NN2C(=O)CCC2=O)nc1C(F)(F)F`: the IC50 turned out to be 1600 nM. For the compound `CCOC(=O)c1cnc(N(C)N2C(=O)C=C(C)C2=O)nc1C(F)(F)F`, the concentration for half-maximal inhibition (IC50) was 300 nM.

Compound `CCOC(=O)c1cnc(N(C(C)=O)N2C(=O)C=C(C)C2=O)nc1C(F)(F)F` yielded an IC50 of 410 nM. As for `CCOC(=O)c1cnc(NN2C(=O)C=C(C)C2=O)nc1Cc1ccccc1`, half-maximal inhibition (IC50) was put at 3800 nM. In turn, `CCOC(=O)c1cnc(NN2C(=O)C=C(C)C2=O)nc1C(F)(F)F` gave an IC50 of 2000 nM.

In turn, `CCOC(=O)c1cnc(NN2C(=O)C=C(C)C2=O)nc1-c1nccs1` showed an IC50 of 2200 nM. Regarding `CCOC(=O)c1cnc(NN2C(=O)C=C(C)C2=O)nc1-c1ccco1`, the 50% inhibitory concentration (IC50) was found to be 1000 nM. Consider `CCc1nc(NN2C(=O)C=C(C)C2=O)ncc1C#N`, for which the IC50 amounted to 1100 nM. The compound `CCOC(=O)c1cnc(N(C)N2C(=O)C=C(C)C2=O)nc1-c1cccs1` registered an IC50 of 94 nM. Consider `CCCc1nc(N(C(C)=O)N2C(=O)C=C(C)C2=O)ncc1C(=O)OCC`, for which the IC50 is 430 nM. As to `CCOC(=O)c1cnc(NN2C(=O)C(C)=C(C)C2=O)nc1C(F)(F)F`, the IC50 was 3900 nM.

For `CC(=O)c1cnc(NN2C(=O)C=C(C)C2=O)nc1C(F)(F)F`, the IC50 stood at 4400 nM.

Staying with this assay, now noted: jurkat.
For `CCOC(=O)c1cnc(N(C)N2C(=O)C=C(C)C2=O)nc1C(F)(F)C(F)(F)F`, the IC50 was 450 nM. This lies in the sub-micromolar range.
